Source: patent US20090016989A1, “ANTIBODIES TO HUMAN SOMATOSTATIN RECEPTOR AND METHODS OF USE” (priority 2007, published 2009)

Columns and labels:
[1] = tested on: BON cells; assay: Guava Nexin apoptosis assay (Annexin V / 7-AAD); type: cell-based, human; details: 6 hours after treatment with staurosporin, % of Total
[2] = tested on: BON cells; assay: Guava Nexin apoptosis assay (Annexin V / 7-AAD); type: cell-based, human; details: 6 hours after treatment with staurosporin, % of Total; remark: listed apart in the source
Method: Cells were then switched to growth media without FBS and allowed to grow for another 24 hours before applying treatments. Samples were collected and counted in accordance with Guava Technologies' Viacount Flex (Cat#4500-0110) instructions. At the end of each antibody treatment, cells were dissociated from the plate using 1× trypsin-EDTA (Invitrogen Cat#2520). […] Next, phosphate buffer solution (D-PBS) (Invitrogen Cat#14190-144) (Invitrogen) was used as the exchange buffer to resuspend the cell pellet. […] Detection was achieved by using Guava PCA96 instrument and data was analysed by using Guava Nexin software module as (Cat#0500-0250). […] Following the protocol for the Guava Nexin™ assay (Guava Technologies), two different dyes were used to stain for cells undergoing apoptosis: 7-AAD stains for dead and late apoptosis cells (upper right quadrant of each graph in FIG. 10), and Annexin V stains for cells undergoing apoptosis from the early stage (lower right quadrant of each graph in FIG. 10). […] Once every 24 hours for 72 hours (FIGS. 10B, 10C and 10D), cells were collected and tested for apoptosis status using the Guava Nexin™ assay (Guava Technologies).

CN[C@@H]1C[C@H]2O[C@@](C)([C@@H]1OC)n1c3ccccc3c3c4c(c5c6ccccc6n2c5c31)C(=O)NC4 [Staurosporine]
Annexin V+ [1]: 52.3%
Nuclear Debris (Upper Left Quadrant) [1]: 1.0%
Early apoptotic cells (Lower Right Quadrant) [2]: 28.7%
Late apoptotic cells (Upper Right Quadrant) [2]: 23.7%
Live, healthy cells (Lower Left Quadrant) [2]: 46.7%
